Experimental findings from ChEMBL document CHEMBL2086308, “Cytotoxic 2-phenyacrylnitriles, the importance of the cyanide moiety and discovery of potent broad spectrum cytotoxic agents” (2012) are described below.

Type in all cases: functional
One assay has as its system HT-29. Put plainly: Growth inhibition of human HT-29 cells assessed as reduction in cell growth at 25uM after 72 hrs by MTT assay. Conditions: HT-29, 72 h, read-out: GI. On the technique in general: Formazan colour is commonly taken as a measure of viable cells.
In a further assay the test system is SW480. Put plainly: Growth inhibition of human SW480 cells assessed as reduction in cell growth at 25uM after 72 hrs by MTT assay. Conditions: SW480, 72 h, read-out: GI.
The test system of a further assay is MCF7. Put plainly: Growth inhibition of human MCF7 cells assessed as reduction in cell growth at 25uM after 72 hrs by MTT assay. Conditions: MCF7, 72 h, read-out: GI.
The test system of another assay is A2780. As to the kind of experiment: Growth inhibition of human A2780 cells assessed as reduction in cell growth at 25uM after 72 hrs by MTT assay. Conditions: A2780, 72 h, read-out: GI.
For the next assay, the system named is NCI-H460. Put plainly: Growth inhibition of human H460 cells assessed as reduction in cell growth at 25uM after 72 hrs by MTT assay. Conditions: NCI-H460, 72 h, read-out: GI.
In another assay the test system is A-431. As to the kind of experiment: Growth inhibition of human A431 cells assessed as reduction in cell growth at 25uM after 72 hrs by MTT assay. Conditions: A-431, 72 h, read-out: GI.
The next assay concerns DU-145. As to the kind of experiment: Growth inhibition of human DU145 cells assessed as reduction in cell growth at 25uM after 72 hrs by MTT assay. Conditions: DU-145, 72 h, read-out: GI.
Assay [1] can be described thus: Growth inhibition of human BE(2)-C cells assessed as reduction in cell growth at 25uM after 72 hrs by MTT assay. Conditions: read-out: GI.
Assay [2] in a line: Growth inhibition of human SJ-G2 cells assessed as reduction in cell growth at 25uM after 72 hrs by MTT assay. Conditions: SJ-G2, 72 h, read-out: GI.
The test system of another assay is MIA PaCa-2. Put plainly: Growth inhibition of human MIAPaCa2 cells assessed as reduction in cell growth at 25uM after 72 hrs by MTT assay. Conditions: MIA PaCa-2, 72 h, read-out: GI.
Assay [3] in a line: Growth inhibition of mouse SMA cells assessed as reduction in cell growth at 25uM after 72 hrs by MTT assay. Conditions: read-out: GI.

On to `COc1ccc(/C=C(\C(=O)O)c2ccc(Cl)c(Cl)c2)cc1`, for which the inhibition of growth at 25 µM is 11% in the assay on HT-29; less than 10% with SW480; less than 10% in the assay on MCF7; less than 10% in the assay on A2780; less than 10% in the assay with NCI-H460; less than 10% in the assay on A-431. The inhibition of growth at 25 µM (in the assay with DU-145; in assay [1]; in assay [2]; in the assay with MIA PaCa-2; in assay [3]) was less than 10% each time.
Turning to `N#C/C(=C\c1ccc(-c2ccccc2)o1)c1ccc(Cl)c(Cl)c1`, the inhibition of growth at 25 µM is 15% in the assay on HT-29; less than 10% in the assay on SW480; less than 10% with MCF7; 13% in the assay on A2780; 11% in the assay on NCI-H460; less than 10% in the assay with A-431. Further, the inhibition of growth at 25 µM (in the assay with DU-145; in [1]; in assay [2]; with MIA PaCa-2; in assay [3]) was less than 10% throughout.
For `Cc1ccc(/C=C(\C#N)c2ccc(Cl)c(Cl)c2)o1`, the inhibition of growth at 25 µM in the assay on HT-29 turned out to be 58%; in the assay on SW480, 47%; in the assay on MCF7 it was 68%; in the assay with A2780, 43%; in the assay with NCI-H460, 40%; in the assay on A-431, 46%. Also, the inhibition of growth at 25 µM in the assay with DU-145 is less than 10%; in assay [1] it was 50%; in assay [2], 32%; in the assay with MIA PaCa-2 it was 36%; in [3], 33%.
